Laboratory results published in patent publication US10646494B2, “Heterocycle-substituted tetracyclic compounds and methods of use thereof for the treatment of viral diseases” (Merck Sharp & Dohme Corp., priority 2016, dated 2020).
Where two headings read alike, the source gives them in different places.

Experiments:
Parameters in all cases: species or system Hepatitis C virus (HCV)
HCV replicon 2B = test: Cell-based HCV replicon assay (Replicon Assay A), replicon 2B; conditions: read-out: Replicon EC50 (nM) 2B, replicon 2B, replicon RNA by real time PCR, cells harvested on day 3
Experimental: (§1) To measure cell-based anti-HCV activity of compounds of the present invention, two complimentary assays were employed using various replicons. In the first assay (“Replicon Assay A”), replicon cells were seeded at 2000 cells/well in 384-well 384-well flat bottom tissue culture treated clear bottom plate (Corning 3707) in the presence of the test compound. Various concentrations of test compound, typically in 10 serial dilutions, were added to the assay mixture, with the starting concentration ranging from 333.3 nM to […]. The final concentration of DMSO was 0.5%. Fetal bovine serum was 5%, in the assay media. Cells were harvested on day 3 by removing media and washing the cells with a suitable wash buffer. The cells are lysed with the addition of 1× Qiagen lysis buffer (Cat #1062731). The replicon RNA level was measured using real time PCR (TaqMan® EZ RT-PCR, Applied Biosystems 403028) with the following primers and probes: […]
(§2) Cyclophilin RNA was used as endogenous control and was amplified in the same reaction as NS5B (multiplex PCR). The real-time RT-PCR reactions were run on ABI PRISM 7900HT Sequence Detection System using the following program: 50° C. for 2 minutes, 60° C. for 30 minutes, 95° C. for 5 minutes, 40 cycles of 94° C. for 20 sec, 55° C. for 1 minutes.
(§3) The amount of HCV replicon RNA per cell is quantified using a linear regression curve for a known nanogram (ng) amount of HCV replicon total RNA. This is established by plotting the Cycle Threshold values (Ct) from the Neo probe and primer set versus the log (ng) for each HCV replicon total RNA standard. The amount of HCV RNA for each replicon sample is calculated by taking the sample's Ct value, minus the line intercept, divided by the slope of the line. Similarly, the amount of Cyclophilin mRNA per cell is also quantified using a linear regression curve for a known nanogram (ng) amount of HCV replicon total RNA. Again, this is established by plotting the Cycle Threshold values (Ct) from the Cyclophilin probe and primer set versus the log (ng) for each HCV replicon total RNA standard.
(§4) Data was obtained for various compounds of the present invention using the methods described in the Example above, and is presented in the table immediately below. Data for replicons 1A, 1AY93H and 2B were obtained using Replicon Assay A and data for replicons 1B were obtained using Replicon Assay B.

HCV replicon 1A Y93H = test: Cell-based HCV replicon assay (Replicon Assay A), replicon 1AY93H; conditions: read-out: Replicon EC50 (nM) 1A Y93H, replicon 1A Y93H, replicon RNA by real time PCR, cells harvested on day 3
Experimental: as §1, §2, §3, §4

HCV replicon 1A = test: Cell-based HCV replicon assay (Replicon Assay A), replicon 1A; conditions: replicon RNA by real time PCR, cells harvested on day 3
Experimental: as §1, §2, §3, §4

| SMILES | EC50 (HCV replicon 2B; Hepatitis C virus, 72 h) [nM] | EC50 (HCV replicon 1A Y93H; Hepatitis C virus, 72 h) [nM] | EC50 (HCV replicon 1A; Hepatitis C virus, 72 h) [nM] | EC50 (HCV replicon 1A) [nM] | EC50 (HCV replicon 2B) [nM] | EC50 (HCV replicon 1A Y93H) [nM] |
| --- | --- | --- | --- | --- | --- | --- |
| CCc1cc(C2Oc3cc(-c4cnc([C@@H]5CCCN5C(=O)[C@@H](NC(=O)OC)C(C)C)[nH]4)cc(F)c3-c3cc4cc(-c5cnc([C@@H]6CCCN6C(=O)[C@@H](NC(=O)OC)C(C)C)[nH]5)ccc4n32)on1 (mixture of isomers) [Compound 5] | 4.17 | 0.708 | – | – | – | – |
| COC(=O)N[C@H](C(=O)N1CCC[C@H]1c1ncc(-c2cc(F)c3c(c2)OC(c2nc4ccccc4n2C)n2c-3cc3cc(-c4cnc([C@@H]5CCCN5C(=O)[C@@H](NC(=O)OC)C(C)C)[nH]4)ccc32)[nH]1)C(C)C (mixture of isomers) [Compound 11] | 8.23 | 21.6 | 0.0081 | – | – | – |
| COC(=O)N[C@H](C(=O)N1CCC[C@H]1c1ncc(-c2cc(F)c3c(c2)OC(c2cc4ccccn4n2)n2c-3cc3cc(-c4cnc([C@@H]5CCCN5C(=O)[C@@H](NC(=O)OC)C(C)C)[nH]4)ccc32)[nH]1)C(C)C (mixture of isomers) [Compound 12] | 33.3 | – | 0.0202 | – | – | – |
| COC(=O)N[C@H](C(=O)N1CCC[C@H]1c1ncc(-c2ccc3c(c2)OC(c2nnc(-c4ccccc4)o2)n2c-3cc3cc(-c4cnc([C@@H]5CCCN5C(=O)[C@@H](NC(=O)OC)C5CCOCC5)[nH]4)ccc32)[nH]1)C1CCOCC1 (mixture of isomers) [Compound 38] | – | 0.737 | 0.223 | – | – | – |
| CCc1cc([C@@H]2Oc3cc(-c4cnc([C@@H]5CCCN5C(=O)[C@@H](NC(=O)OC)C(C)C)[nH]4)cc(F)c3-c3cc4cc(-c5cnc([C@@H]6CCCN6C(=O)[C@@H](NC(=O)OC)C(C)C)[nH]5)ccc4n32)on1 (single isomer, unassigned) [Compound 7] | – | – | – | 0.0073 | 10.5 | 49.7 |
| CCc1cc([C@@H]2Oc3cc(-c4cnc([C@@H]5CCCN5C(=O)[C@@H](NC(=O)OC)C(C)C)[nH]4)cc(F)c3-c3cc4cc(-c5cnc([C@@H]6CCCN6C(=O)[C@@H](NC(=O)OC)C(C)C)[nH]5)ccc4n32)on1 (single isomer, unassigned) [Compound 8] | – | – | 0.004 | – | 1.23 | 0.603 |
| COC(=O)N[C@H](C(=O)N1CCC[C@H]1c1ncc(-c2cc(F)c3c(c2)O[C@@H](c2cc(C(C)C)no2)n2c-3cc3cc(-c4cnc([C@@H]5CCCN5C(=O)[C@@H](NC(=O)OC)C(C)C)[nH]4)ccc32)[nH]1)C(C)C (single isomer, unassigned) [Compound 9] | – | – | 0.0036 | – | 0.27 | 0.05 |
| COC(=O)N[C@H](C(=O)N1CCC[C@H]1c1ncc(-c2cc(F)c3c(c2)O[C@@H](c2cc(C(C)C)no2)n2c-3cc3cc(-c4cnc([C@@H]5CCCN5C(=O)[C@@H](NC(=O)OC)C(C)C)[nH]4)ccc32)[nH]1)C(C)C (single isomer, unassigned) [Compound 10] | – | – | – | 0.0027 | 1.05 | 1.43 |
| COC(=O)N[C@H](C(=O)N1CCC[C@@H]1c1ncc(-c2ccc3c(c2)cc2n3C(c3nnc(C)s3)Oc3cc(-c4cnc([C@H]5CCCN5C(=O)[C@H](NC(=O)OC)C(C)C)[nH]4)cc(F)c3-2)[nH]1)C(C)C (single isomer, unassigned) [Compound 15] | 3.06 | – | – | – | – | – |
| COC(=O)N[C@H](C(=O)N1CCC[C@@H]1c1ncc(-c2ccc3c(c2)cc2n3C(c3nnc(C)s3)Oc3cc(-c4cnc([C@H]5CCCN5C(=O)[C@H](NC(=O)OC)C(C)C)[nH]4)cc(F)c3-2)[nH]1)C(C)C (single isomer, unassigned) [Compound 16] | – | – | – | – | 1.75 | – |
| COC(=O)N[C@H](C(=O)N1CCC[C@@H]1c1ncc(-c2ccc3c(c2)cc2n3C(c3cnco3)Oc3cc(-c4cnc([C@H]5CCCN5C(=O)[C@H](NC(=O)OC)C(C)C)[nH]4)cc(F)c3-2)[nH]1)C(C)C (single isomer, unassigned) [Compound 17] | 3.96 | – | – | 0.0327 | – | 0.716 |
| COC(=O)N[C@H](C(=O)N1CCC[C@@H]1c1ncc(-c2ccc3c(c2)cc2n3C(c3cnco3)Oc3cc(-c4cnc([C@H]5CCCN5C(=O)[C@H](NC(=O)OC)C(C)C)[nH]4)cc(F)c3-2)[nH]1)C(C)C (single isomer, unassigned) [Compound 18] | – | – | – | 0.0023 | 3.54 | 18.4 |
| COC(=O)N[C@H](C(=O)N1CCC[C@H]1c1ncc(-c2cc(F)c3c(c2)OC(c2nc4ccccc4o2)n2c-3cc3cc(-c4cnc([C@@H]5CCCN5C(=O)[C@@H](NC(=O)OC)C(C)C)[nH]4)ccc32)[nH]1)C(C)C (single isomer, unassigned) [Compound 19] | – | – | 0.0016 | – | 2.67 | 4.36 |
| COC(=O)N[C@H](C(=O)N1CCC[C@H]1c1ncc(-c2cc(F)c3c(c2)OC(c2cnns2)n2c-3cc3cc(-c4cnc([C@@H]5CCCN5C(=O)[C@@H](NC(=O)OC)C(C)C)[nH]4)ccc32)[nH]1)C(C)C (single isomer, unassigned) [Compound 21] | – | – | – | – | 0.98 | 1.39 |
| COC(=O)N[C@H](C(=O)N1CCC[C@H]1c1ncc(-c2cc(F)c3c(c2)OC(c2nc(C)co2)n2c-3cc3cc(-c4cnc([C@@H]5CCCN5C(=O)[C@@H](NC(=O)OC)C(C)C)[nH]4)ccc32)[nH]1)C(C)C (single isomer, unassigned) [Compound 23] | – | – | 0.0031 | – | 6.16 | 12.7 |
| COC(=O)N[C@H](C(=O)N1CCC[C@H]1c1ncc(-c2cc(F)c3c(c2)OC(c2nc(C)co2)n2c-3cc3cc(-c4cnc([C@@H]5CCCN5C(=O)[C@@H](NC(=O)OC)C(C)C)[nH]4)ccc32)[nH]1)C(C)C (single isomer, unassigned) [Compound 24] | – | – | – | 0.0021 | 2.62 | 0.266 |
| COC(=O)N[C@H](C(=O)N1CCC[C@H]1c1ncc(-c2cc(F)c3c(c2)OC(c2cc(C(C)C)no2)n2c-3cc3cc(-c4cnc([C@@H]5CCCN5C(=O)[C@@H](NC(=O)OC)C(C)C)[nH]4)ccc32)[nH]1)C(C)C (single isomer, unassigned) [Compound 26] | – | – | – | – | 0.8 | 0.816 |
| CCc1cnc(C2Oc3cc(-c4cnc([C@@H]5CCCN5C(=O)[C@@H](NC(=O)OC)C(C)C)[nH]4)cc(F)c3-c3cc4cc(-c5cnc([C@@H]6CCCN6C(=O)[C@@H](NC(=O)OC)C(C)C)[nH]5)ccc4n32)o1 (single isomer, unassigned) [Compound 27] | – | – | 0.0027 | – | 5.5 | – |
| CCc1cnc(C2Oc3cc(-c4cnc([C@@H]5CCCN5C(=O)[C@@H](NC(=O)OC)C(C)C)[nH]4)cc(F)c3-c3cc4cc(-c5cnc([C@@H]6CCCN6C(=O)[C@@H](NC(=O)OC)C(C)C)[nH]5)ccc4n32)o1 (single isomer, unassigned) [Compound 28] | – | 0.31 | – | 0.0021 | 2.09 | – |
| COC(=O)N[C@H](C(=O)N1CCC[C@H]1c1ncc(-c2cc(F)c3c(c2)OC(c2cc(C4CC4)no2)n2c-3cc3cc(-c4cnc([C@@H]5CCCN5C(=O)[C@@H](NC(=O)OC)C(C)C)[nH]4)ccc32)[nH]1)C(C)C (single isomer, unassigned) [Compound 29] | – | – | – | – | 0.46 | 3.25 |
| CCc1nnc(C2Oc3cc(-c4cnc([C@@H]5CCCN5C(=O)[C@@H](NC(=O)OC)C(C)C)[nH]4)cc(F)c3-c3cc4cc(-c5cnc([C@@H]6CCCN6C(=O)C(NC(=O)OC)C(C)C)[nH]5)ccc4n32)s1 (single isomer, unassigned) [Compound 34] | – | 0.793 | – | 0.0084 | – | – |
| COC(=O)N[C@H](C(=O)N1CCC[C@H]1c1ncc(-c2cc(F)c3c(c2)OC(c2cnc4n2CCC4)n2c-3cc3cc(-c4cnc([C@@H]5CCCN5C(=O)[C@@H](NC(=O)OC)C(C)C)[nH]4)ccc32)[nH]1)C(C)C (some centres unmarked) [Compound 13] | – | – | 0.147 | – | – | – |
| COC(=O)N[C@H](C(=O)N1CCC[C@H]1c1ncc(-c2ccc3c(c2)OC(c2ccc(C)o2)n2c-3cc3cc(-c4cnc([C@@H]5C[C@@H](F)CN5C(=O)[C@@H](NC(=O)OC)C5CCOCC5)[nH]4)ccc32)[nH]1)C(C)C (some centres unmarked) [Compound 44] | – | 0.434 | 0.0679 | – | – | – |
| COC(=O)N[C@H](C(=O)N1CCC[C@H]1c1ncc(-c2ccc3c(c2)OC(c2ccc(C)o2)n2c-3cc3cc(-c4cnc([C@@H]5C[C@H]6C[C@H]6N5C(=O)[C@@H](NC(=O)OC)C(C)C)[nH]4)ccc32)[nH]1)C(C)C (some centres unmarked) [Compound 45] | – | 4.22 | 0.0484 | – | – | – |
